Bridge positions count the residues as written; N and C are the ends. Peptide text beside a SMILES is read from it. I, II: the chains in the order shown.
What was measured:
Solubility in water = type: physicochemical; conditions: pH 6.5, 25° C.
Description: The solubility of γ-Glu-Cys-Cys and (γ-Glu-Cys)2 was compared with that of cystine and known cystine-containing peptides.

[1] = target: T1, γ-glutamyltransferase prepared from swine kidney (Sus scrofa, UniProt P20735); assay: Hydrolysis by γ-glutamyltransferase; type: biochemical; conditions: 5 mM peptide, Tris-hydrochloride buffer pH 7, 37° C., 120 minutes
T1 construct: γ-glutamyltransferase prepared from swine kidney; from tissue; host or cells: swine kidney
Description: It was thus recognized that there was a difference between these peptides with respect to utilization in vivo.
A peptide was dissolved in Tris-hydrochloride buffer solution (pH 7) in a concentration of 5 mM and γ-glutamyltransferase prepared from swine kidney was added to the solution. After reaction at 37° C. for 120 minutes, the amount of the remaining peptide was determined.

[2] = In vitro hydrolysis in human plasma; type: in vitro ADME; conditions: 37° C., 30 minutes; for remaining at 0.5 h, 2.18 mM: read-out: Residual amount in plasma (%)
Description: It was thus recognized that there was a clear difference between these peptides with respect to utilization in vivo.
To 100 μl of plasma collected and prepared from human was added 10 μl of a 24 mM solution of a peptide in physiological saline. After reaction at 37° C. for 30 minutes, the amount of the remaining peptide was determined.

[3] = In vitro hydrolysis in mouse plasma; type: in vitro ADME, C3H/He mouse; conditions: 37° C., 30 minutes; for remaining at 0.5 h, 2.46 mM: male, C3H/He mouse plasma, mean of five mice, read-out: Residual amount in plasma (%)
Description: To 50 μl of plasma collected and prepared from C3H/He mouse (6 weeks of age, male, weighing 22 g) was added 5 μl of a 27.1 mM solution of a peptide in physiological saline, followed by reaction at 37° C. for 30 minutes.

[4] = Uptake by mouse kidney after tail vein administration; type: in vivo, C3H/He mice; conditions: 250 μmoles/kg tail vein, mean (SEM on next line)
Description: Uptake of γ-Glu-Cys-Cys and (γ-Glu-Cys)2 by mouse kidney was compared with that of (Ala-Cys)2 according to the test method described below.
Physiological saline solutions of γ-Glu-Cys-Cys, (γ-Glu-Cys)2 and (Ala-Cys)2 were administered respectively to groups of C3H/He mice (6 weeks of age, male, weighing 22 g) through the tail vein in a dose of 250 μmoles/kg body weight, and the kidney was excised 1, 5 and 20 minutes after the administration, followed by determination of glutamic acid, alanine and cystine in the kidney.

[5] = Stability in solution on heat treatment and on standing; type: physicochemical; conditions: 10 mM
[6] = administered subcutaneously to mice; Anderson and Meister 1983; cited from earlier work
[7] = 25° C.; background statement; cited from earlier work
[8] = Stability on heating in jelly-like nutrient preparation (Example 3); type: physicochemical; conditions: 100° C. for 30 minutes, Example 3 composition

T1 sequence (P20735 1-379 limits assumed): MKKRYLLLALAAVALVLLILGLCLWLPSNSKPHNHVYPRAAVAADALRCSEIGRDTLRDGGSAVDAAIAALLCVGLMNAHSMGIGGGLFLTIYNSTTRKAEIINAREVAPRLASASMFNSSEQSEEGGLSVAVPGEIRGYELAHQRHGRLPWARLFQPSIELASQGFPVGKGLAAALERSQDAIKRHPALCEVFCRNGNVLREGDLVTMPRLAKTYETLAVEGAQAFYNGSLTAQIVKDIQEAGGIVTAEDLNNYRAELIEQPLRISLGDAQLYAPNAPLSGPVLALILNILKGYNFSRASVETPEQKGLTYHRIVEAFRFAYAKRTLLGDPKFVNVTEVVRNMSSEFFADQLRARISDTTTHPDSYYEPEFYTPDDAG
T1 sequence (P20735 380-568 limits assumed): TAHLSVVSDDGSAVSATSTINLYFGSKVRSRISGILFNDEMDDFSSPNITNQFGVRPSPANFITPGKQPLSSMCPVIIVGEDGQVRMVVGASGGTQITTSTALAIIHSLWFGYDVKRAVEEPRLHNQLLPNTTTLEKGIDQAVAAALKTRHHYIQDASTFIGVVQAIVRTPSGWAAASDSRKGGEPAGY

C[C@H](N)C(=O)N[C@@H](CSSC[C@H](NC(=O)[C@H](C)N)C(=O)O)C(=O)O [(Ala-Cys)2, bis-α-L-alanyl-L-cystine, reference compound] (I: H-Ala-Cys-OH / II: H-Ala-Cys-OH; disulfide I:2-II:2)
Solubility in 1000 ml of water (Solubility in water): > 50 g
Hydrolysis by γ-glutamyltransferase [1]: not hydrolyzed
remaining at 0.5 h, 2.18 mM [2]: 26%
remaining at 0.5 h, 2.46 mM [3]: 0%
Ala (alanine) in kidney ([4]; 0 min after administration): 2.33 μmole/g wet weight of kidney
Ala (alanine) in kidney ([4]; 1 min after administration): 2.87 μmole/g wet weight of kidney
Ala (alanine) in kidney ([4]; 5 min after administration): 2.59 μmole/g wet weight of kidney
Ala (alanine) in kidney ([4]; 20 min after administration): 2.16 μmole/g wet weight of kidney

N[C@@H](CC(=O)O)C(=O)N[C@@H](CSSC[C@H](NC(=O)[C@@H](N)CC(=O)O)C(=O)O)C(=O)O [(Asp-Cys)2, N,N'-bis-α-aspartyl-L-cystine] (I: H-Asp-Cys-OH / II: H-Asp-Cys-OH; disulfide I:2-II:2)
Solubility in 1000 ml of water (Solubility in water): > 50 g
Hydrolysis by γ-glutamyltransferase [1]: not hydrolyzed
remaining at 0.5 h, 2.18 mM [2]: 30%

C[C@H](NC(=O)[C@@H](N)CSSC[C@H](N)C(=O)N[C@@H](C)C(=O)O)C(=O)O [(Cys-Ala)2, L-cysteinyl-bis-L-alanine] (I: H-Cys-Ala-OH / II: H-Cys-Ala-OH; disulfide I:1-II:1)
Solubility in 1000 ml of water (Solubility in water): 8.1 g

NCC(=O)N[C@@H](CSSC[C@H](NC(=O)CN)C(=O)O)C(=O)O [(Gly-Cys)2, bis-glycyl-L-cystine, reference compound] (I: H-Gly-Cys-OH / II: H-Gly-Cys-OH; disulfide I:2-II:2)
Solubility in 1000 ml of water (Solubility in water): > 50 g
remaining at 0.5 h, 2.18 mM [2]: 35%

N[C@@H](CCC(=O)N[C@@H](CSSC[C@H](NC(=O)CC[C@H](N)C(=O)O)C(=O)O)C(=O)O)C(=O)O [(γ-Glu-Cys)2, L-glutamyl-L-cysteine disulfide]
Solubility in 1000 ml of water (Solubility in water): > 70 g
Hydrolysis by γ-glutamyltransferase [1]: almost completely hydrolyzed
Hydrolysis in human plasma [2]: hydrolyzed in plasma only with difficulty
remaining at 0.5 h, 2.18 mM [2]: 85%
remaining at 0.5 h, 2.46 mM [3]: 84%
Hydrolysis in mouse plasma [3]: hydrolyzed in plasma only with difficulty
Glu (glutamic acid) in kidney ([4]; 0 min after administration): 5.54 μmole/g wet weight of kidney
Glu (glutamic acid) in kidney ([4]; 1 min after administration): 14.82 μmole/g wet weight of kidney
Glu (glutamic acid) in kidney ([4]; 5 min after administration): 22.5 μmole/g wet weight of kidney
Glu (glutamic acid) in kidney ([4]; 20 min after administration): 18.14 μmole/g wet weight of kidney
Decomposition on standing ([5]; pH 6.5, 40° C. for 60 days): not decomposed
Decomposition by heat treatment ([5]; pH 6.5, 110° C. for 20 minutes): hardly decomposed
Utilization in the synthesis of kidney glutathione [6]: can be utilized in the synthesis of kidney glutathione

N[C@@H](CS)C(=O)NCCCC[C@H](NC(=O)[C@@H](N)CS)C(=O)O [Cys-Lys(Cys), N^2 -cysteinyl-N^6 -L-cysteinyl-L-lysine] (H-Cys-Lys(Cys)-OH)
Solubility in 1000 ml of water (Solubility in water): > 50 g

N[C@@H](CSSC[C@H](N)C(=O)O)C(=O)O [Cystine, L-cystine]
Solubility in 1000 ml of water (Solubility in water): 0.1 g
solubility in water [7]: less than 0.11 g/l

N[C@@H](CCC(=O)N[C@@H](CSSC[C@H](N)C(=O)O)C(=O)O)C(=O)O [γ-Glu-Cys-Cys]
Solubility in 1000 ml of water (Solubility in water): > 70 g
Hydrolysis in human plasma [2]: hydrolyzed in plasma only with difficulty
remaining at 0.5 h, 2.18 mM [2]: 67%
remaining at 0.5 h, 2.46 mM [3]: 53%
Hydrolysis in mouse plasma [3]: hydrolyzed in plasma only with difficulty
Glu (glutamic acid) in kidney ([4]; 0 min after administration): 5.54 μmole/g wet weight of kidney
Glu (glutamic acid) in kidney ([4]; 1 min after administration): 13.09 μmole/g wet weight of kidney
Glu (glutamic acid) in kidney ([4]; 5 min after administration): 20.32 μmole/g wet weight of kidney
Glu (glutamic acid) in kidney ([4]; 20 min after administration): 15.1 μmole/g wet weight of kidney
Stability under heating of the jelly-like preparation [8]: stably maintained
